Earlier results as cited in patent publication US20110268774A1, “PREPARATION OF STEM CELLS WITH REPROGRAMMED CELL SIGNALLING, A METHOD OF PRODUCING THE PREPARATION AND A METHOD OF USE THEREOF” (priority 2008, published 2011).

Target: Protein produced by HER2/neu gene (Homo sapiens, UniProt P04626)
Settings: breast cancer

Protein produced by HER2/neu gene, sequence (P04626 23-1255): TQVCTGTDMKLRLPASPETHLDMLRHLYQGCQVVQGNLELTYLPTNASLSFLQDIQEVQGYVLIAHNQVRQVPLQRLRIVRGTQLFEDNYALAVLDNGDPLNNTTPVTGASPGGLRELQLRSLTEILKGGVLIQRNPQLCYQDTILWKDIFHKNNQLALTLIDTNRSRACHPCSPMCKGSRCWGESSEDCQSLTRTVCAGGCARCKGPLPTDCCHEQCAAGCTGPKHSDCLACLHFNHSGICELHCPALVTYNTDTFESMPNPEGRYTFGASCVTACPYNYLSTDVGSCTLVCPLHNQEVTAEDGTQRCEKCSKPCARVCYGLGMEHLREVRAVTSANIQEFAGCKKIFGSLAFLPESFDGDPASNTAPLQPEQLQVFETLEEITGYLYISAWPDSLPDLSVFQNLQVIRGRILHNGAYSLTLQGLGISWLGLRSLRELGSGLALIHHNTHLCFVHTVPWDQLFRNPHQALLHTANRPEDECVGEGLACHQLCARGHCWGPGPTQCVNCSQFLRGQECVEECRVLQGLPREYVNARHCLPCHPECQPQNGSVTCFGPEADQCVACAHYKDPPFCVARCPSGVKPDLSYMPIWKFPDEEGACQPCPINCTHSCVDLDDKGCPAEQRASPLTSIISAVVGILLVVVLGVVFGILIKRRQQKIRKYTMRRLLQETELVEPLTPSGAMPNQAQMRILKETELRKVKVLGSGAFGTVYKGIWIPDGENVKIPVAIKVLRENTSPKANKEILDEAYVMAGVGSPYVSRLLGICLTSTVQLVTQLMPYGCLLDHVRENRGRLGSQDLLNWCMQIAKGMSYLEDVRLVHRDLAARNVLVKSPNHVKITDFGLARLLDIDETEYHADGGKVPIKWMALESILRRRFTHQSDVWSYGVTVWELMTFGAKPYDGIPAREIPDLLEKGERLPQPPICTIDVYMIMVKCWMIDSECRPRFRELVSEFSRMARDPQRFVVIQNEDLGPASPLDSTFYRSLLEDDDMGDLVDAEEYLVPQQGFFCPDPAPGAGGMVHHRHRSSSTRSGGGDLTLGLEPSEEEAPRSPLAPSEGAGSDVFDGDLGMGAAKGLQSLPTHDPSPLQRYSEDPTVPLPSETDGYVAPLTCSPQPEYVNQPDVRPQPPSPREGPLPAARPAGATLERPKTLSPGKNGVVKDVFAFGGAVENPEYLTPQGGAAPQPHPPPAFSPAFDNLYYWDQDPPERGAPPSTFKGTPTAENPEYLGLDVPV

Which results are given for `CS(=O)(=O)CCNCc1ccc(-c2ccc3ncnc(Nc4ccc(OCc5cccc(F)c5)c(Cl)c4)c3c2)o1` [Tykerb]?
recovery: 63%; CSC percentage in tumour (from 11%): 5%
